Structures are written as SMILES. *1 amine or outer side, *2 acyl side, *3 side chain or, on linkers, in order; H or OH if unused. Where a SMILES comes first, the peptide text is derived from it. Bridges are numbered along the chain shown (N, C = ends). Roman numbers before positions name the chains, in order. Side-chain parts run from the residue outwards. [ ]: non-standard residue; d: D form. The star is where a group is joined. C18 diacid = O=C(O)CCCCCCCCCCCCCCCCC(=O)*; γGlu = O=C(O)[C@H](CCC(=O)[*:2])N[*:1]; Desaminohistidyl = O=C(CCc1c[nH]cn1)*; Ac4c = NC1(C(=O)O)CCC1; AEEA = NCCOCCOCC(=O)O; Aib = CC(C)(N)C(=O)O

The target in this assay is T1, human GLP-1 receptor (Homo sapiens, UniProt P43220).
T1 construct: expressed in transfected cells; host or cells: membranes of BHK cells, parent line BHKTS13, clone FCW467-12A
T1 sequence (P43220 24-463): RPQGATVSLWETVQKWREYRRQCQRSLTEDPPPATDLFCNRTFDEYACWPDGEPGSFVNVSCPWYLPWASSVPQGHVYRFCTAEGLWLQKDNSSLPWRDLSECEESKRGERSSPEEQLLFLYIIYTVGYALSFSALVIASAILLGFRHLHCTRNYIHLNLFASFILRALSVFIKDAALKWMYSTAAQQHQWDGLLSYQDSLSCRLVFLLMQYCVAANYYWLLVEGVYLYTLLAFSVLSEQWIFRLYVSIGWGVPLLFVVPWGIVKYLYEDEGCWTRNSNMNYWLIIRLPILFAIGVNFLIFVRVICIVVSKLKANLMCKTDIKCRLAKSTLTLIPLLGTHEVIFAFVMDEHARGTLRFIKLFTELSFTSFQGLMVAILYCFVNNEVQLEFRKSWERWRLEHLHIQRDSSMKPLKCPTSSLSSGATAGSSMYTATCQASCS
Description: Assay (II)(a): GLP-1 receptor binding, [125I]GLP-1 displacement, SPA on BHK membranes. To be noted: displacement of [125I]GLP-1, membranes with human GLP-1 receptor; read-out: IC50 GLP-1R. In short, it runs like this: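 Membranes from BHK cells expressing human GLP-1 receptor with WGA SPA beads, [125I]GLP-1(7-36)NH2 (480 pM added solution) and compound in HEPES pH 7.4 buffer with EGTA, MgCl2, Tween 20. Incubated 2 h at 30° C; SPA counts fitted by non-linear regression to IC50 in nM.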
Background: Displacement assays read how much labelled ligand stays bound in the presence of the test substance.
By IC50 is commonly meant the concentration needed to halve the response being measured. Turning to `CC[C@H](C)[C@H](NC(=O)[C@H](Cc1ccccc1)NC(=O)[C@H](CCC(=O)O)NC(=O)[C@H](CCCNC(=N)N)NC(=O)[C@H](C)NC(=O)[C@H](C)NC(=O)[C@H](CCC(N)=O)NC(=O)[C@H](CCC(=O)O)NC(=O)[C@H](CCC(=O)O)NC(=O)[C@H](CC(C)C)NC(=O)[C@H](Cc1ccc(O)cc1)NC(=O)[C@H](CCCNC(=N)N)NC(=O)[C@H](CO)NC(=O)[C@@H](NC(=O)[C@H](CC(=O)O)NC(=O)[C@H](CO)NC(=O)[C@@H](NC(=O)[C@H](Cc1ccccc1)NC(=O)[C@@H](NC(=O)CNC(=O)[C@H](Cc1c[nH]cn1)NC(=O)C(C)(C)NC(=O)CCc1c[nH]cn1)[C@@H](C)O)[C@@H](C)O)C(C)C)C(=O)N[C@@H](C)C(=O)N[C@@H](Cc1c[nH]c2ccccc12)C(=O)N[C@@H](CC(C)C)C(=O)N[C@@H](CC(C)C)C(=O)N[C@@H](CCCCNC(=O)CNC(=O)[C@H](CO)NC(=O)[C@H](CCC(=O)O)NC(=O)CNC(=O)[C@H](CO)NC(=O)CC[C@H](NC(=O)CC[C@H](NC(=O)CCCCCCCCCCCCCCCCC(=O)O)C(=O)O)C(=O)O)C(=O)N[C@H](C(N)=O)[C@@H](C)O` [Example 7, N^ε34-[2-[[(2S)-2-[[(2S)-4-carboxy-2-[[2-[[(2S)-2-[[(4S)-4-carboxy-4-[[(4S)-4-carboxy-4-(17-carboxyheptadecanoylamino)butanoyl]amino]butanoyl]amino]-3-hydroxypropanoyl]amino]acetyl]amino]butanoyl]amino]-3-hydroxypropanoyl]amino]acetyl]-[Imp7,Aib8,His9,Arg18,Glu22,Arg26,Leu33,Thr35]-GLP-1-(7-35)-peptide amide] (I: Desaminohistidyl-[Aib]HGTFTSDVSRYLEEQAAREFIAWLLKT-NH2 / II: {C18 diacid-γGlu-γGlu}-SGESG; amide I:27-II:C), the IC50 turned out to be 500 pM.

Regarding `CC[C@H](C)[C@H](NC(=O)[C@H](Cc1ccccc1)NC(=O)[C@H](CCC(=O)O)NC(=O)[C@H](CCCNC(=N)N)NC(=O)[C@H](C)NC(=O)[C@H](C)NC(=O)[C@H](CCCNC(=N)N)NC(=O)CNC(=O)[C@H](CCC(=O)O)NC(=O)[C@H](CC(C)C)NC(=O)[C@H](Cc1ccc(O)cc1)NC(=O)[C@H](CCCCN)NC(=O)[C@H](CO)NC(=O)[C@@H](NC(=O)[C@H](CC(=O)O)NC(=O)[C@H](CO)NC(=O)[C@@H](NC(=O)[C@H](Cc1ccccc1)NC(=O)[C@@H](NC(=O)CNC(=O)[C@H](Cc1c[nH]cn1)NC(=O)[C@H](C)NC(=O)CCc1c[nH]cn1)[C@@H](C)O)[C@@H](C)O)C(C)C)C(=O)N[C@@H](C)C(=O)N[C@@H](Cc1c[nH]c2ccccc12)C(=O)N[C@@H](CC(C)C)C(=O)N[C@@H](CC(C)C)C(=O)N[C@@H](CCCCNC(=O)COCCOCCNC(=O)COCCOCCNC(=O)CC[C@H](NC(=O)CC[C@H](NC(=O)CC[C@H](NC(=O)CCCCCCCCCCCCCCCCC(=O)O)C(=O)O)C(=O)O)C(=O)O)C(=O)N[C@H](C(N)=O)[C@@H](C)O` [Example 10, N^ε34-[2-[2-[2-[[2-[2-[2-[[(4S)-4-carboxy-4-[[(4S)-4-carboxy-4-[[(4S)-4-carboxy-4-(17-carboxyheptadecanoylamino)butanoyl]amino]butanoyl]amino]butanoyl]amino]ethoxy]ethoxy]acetyl]amino]ethoxy]ethoxy]acetyl]-[Imp7,His9,Lys18,Arg23,Arg26,Leu33,Thr35]-GLP-1-(7-35)-peptide amide] (Desaminohistidyl-AHGTFTSDVSKYLEGRAAREFIAWLLK([AEEA-AEEA-γGlu-γGlu-γGlu-C18 diacid])T-NH2), the IC50 amounted to 1000 pM.

Turning to `CC[C@H](C)[C@H](NC(=O)[C@H](Cc1ccccc1)NC(=O)[C@H](CCC(=O)O)NC(=O)[C@H](CCCNC(=N)N)NC(=O)[C@H](C)NC(=O)[C@H](C)NC(=O)[C@H](CCC(N)=O)NC(=O)[C@H](CCC(=O)O)NC(=O)[C@H](CCC(=O)O)NC(=O)[C@H](CC(C)C)NC(=O)[C@H](Cc1ccc(O)cc1)NC(=O)[C@H](CCCCN)NC(=O)[C@H](CO)NC(=O)[C@@H](NC(=O)[C@H](CC(=O)O)NC(=O)[C@H](CO)NC(=O)[C@@H](NC(=O)[C@H](Cc1ccccc1)NC(=O)[C@@H](NC(=O)CNC(=O)[C@H](Cc1c[nH]cn1)NC(=O)C(C)(C)NC(=O)CCc1c[nH]cn1)[C@@H](C)O)[C@@H](C)O)C(C)C)C(=O)N[C@@H](C)C(=O)N[C@@H](Cc1c[nH]c2ccccc12)C(=O)N[C@@H](CC(C)C)C(=O)N[C@@H](CC(C)C)C(=O)N[C@@H](CCCCNC(=O)CC[C@H](NC(=O)CC[C@H](NC(=O)CC[C@H](NC(=O)CC[C@H](NC(=O)CCCCCCCCCCCCCCCCC(=O)O)C(=O)O)C(=O)O)C(=O)O)C(=O)O)C(=O)N[C@H](C(N)=O)[C@@H](C)O` [Example 6, N^ε34-[(4S)-4-carboxy-4-[[(4S)-4-carboxy-4-[[(4S)-4-carboxy-4-[[(4S)-4-carboxy-4-(17-carboxyheptadecanoylamino)butanoyl]amino]butanoyl]amino]butanoyl]amino]butanoyl]-[Imp7,Aib8,His9,Lys18,Glu22,Arg26,Leu33,Thr35]-GLP-1-(7-35)-peptide amide] (Desaminohistidyl-[Aib]HGTFTSDVSKYLEEQAAREFIAWLLK([γGlu-γGlu-γGlu-γGlu-C18 diacid])T-NH2), the IC50 was 300 pM.

Turning to `CC[C@H](C)[C@H](NC(=O)[C@H](Cc1ccccc1)NC(=O)[C@H](CCC(=O)O)NC(=O)[C@H](CCCNC(=N)N)NC(=O)[C@H](C)NC(=O)[C@H](C)NC(=O)[C@H](CCC(N)=O)NC(=O)[C@H](CCC(=O)O)NC(=O)[C@H](CCC(=O)O)NC(=O)[C@H](CC(C)C)NC(=O)[C@H](Cc1ccc(O)cc1)NC(=O)[C@H](CCCCN)NC(=O)[C@H](CO)NC(=O)[C@@H](NC(=O)[C@H](CC(=O)O)NC(=O)[C@H](CO)NC(=O)[C@@H](NC(=O)[C@H](Cc1ccccc1)NC(=O)[C@@H](NC(=O)CNC(=O)[C@H](Cc1c[nH]cn1)NC(=O)C1(NC(=O)CCc2c[nH]cn2)CCC1)[C@@H](C)O)[C@@H](C)O)C(C)C)C(=O)N[C@@H](C)C(=O)N[C@@H](Cc1c[nH]c2ccccc12)C(=O)N[C@@H](CC(C)C)C(=O)N[C@@H](CC(C)C)C(=O)N[C@@H](CCCCNC(=O)CNC(=O)[C@H](CO)NC(=O)[C@H](CCC(=O)O)NC(=O)CNC(=O)[C@H](CO)NC(=O)CC[C@H](NC(=O)CC[C@H](NC(=O)CCCCCCCCCCCCCCCCC(=O)O)C(=O)O)C(=O)O)C(=O)N[C@H](C(N)=O)[C@@H](C)O` [Example 9, N^ε34-[2-[[(2S)-2-[[(2S)-4-carboxy-2-[[2-[[(2S)-2-[[(4S)-4-carboxy-4-[[(4S)-4-carboxy-4-(17-carboxyheptadecanoylamino)butanoyl]amino]butanoyl]amino]-3-hydroxypropanoyl]amino]acetyl]amino]butanoyl]amino]-3-hydroxypropanoyl]amino]acetyl]-[Imp7,Acb8,His9,Lys18,Glu22,Arg26,Leu33,Thr35]-GLP-1-(7-35)-peptide amide] (I: Desaminohistidyl-[Ac4c]HGTFTSDVSKYLEEQAAREFIAWLLKT-NH2 / II: {C18 diacid-γGlu-γGlu}-SGESG; amide I:27-II:C), the IC50 came out at 100 pM.

As for `CC[C@H](C)[C@H](NC(=O)[C@H](Cc1ccccc1)NC(=O)[C@H](CCC(=O)O)NC(=O)[C@H](CCCNC(=N)N)NC(=O)[C@H](C)NC(=O)[C@H](C)NC(=O)[C@H](CCC(N)=O)NC(=O)[C@H](CCC(=O)O)NC(=O)[C@H](CCC(=O)O)NC(=O)[C@H](CC(C)C)NC(=O)[C@H](Cc1ccc(O)cc1)NC(=O)[C@H](CCCCN)NC(=O)[C@H](CO)NC(=O)[C@@H](NC(=O)[C@H](CC(=O)O)NC(=O)[C@H](CO)NC(=O)[C@@H](NC(=O)[C@H](Cc1ccccc1)NC(=O)[C@@H](NC(=O)CNC(=O)[C@H](Cc1c[nH]cn1)NC(=O)C(C)(C)NC(=O)CCc1c[nH]cn1)[C@@H](C)O)[C@@H](C)O)C(C)C)C(=O)N[C@@H](C)C(=O)N[C@@H](Cc1c[nH]c2ccccc12)C(=O)N[C@@H](CC(C)C)C(=O)N[C@@H](CC(C)C)C(=O)N[C@@H](CCCCNC(=O)CNC(=O)[C@H](CO)NC(=O)CC[C@H](NC(=O)CC[C@H](NC(=O)CCCCCCCCCCCCCCCCC(=O)O)C(=O)O)C(=O)O)C(=O)N[C@H](C(N)=O)[C@@H](C)O` [Example 4, N^ε34-[2-[[(2S)-2-[[(4S)-4-carboxy-4-[[(4S)-4-carboxy-4-(17-carboxyheptadecanoylamino)butanoyl]amino]butanoyl]amino]-3-hydroxypropanoyl]amino]acetyl]-[Imp7,Aib8,His9,Lys18,Glu22,Arg26,Leu33,Thr35]-GLP-1-(7-35)-peptide amide] (Desaminohistidyl-[Aib]HGTFTSDVSKYLEEQAAREFIAWLLK([Gly-Ser-γGlu-γGlu-C18 diacid])T-NH2), the IC50 was 200 pM.

The values above are taken from patent publication US9988430B2, “Stable GLP-1 based GLP-1/glucagon receptor co-agonists” (Novo Nordisk A/S, priority 2014, dated 2018).
